Measured values published in paper PMC7084345, “Differential Inhibitory Actions of Multitargeted Tyrosine Kinase Inhibitors on Different Ionic Current Types in Cardiomyocytes” (International Journal of Molecular Sciences, 2020).

Biological target: T1, KV7.1 (KCNQ1) channel, IK(S) (Rattus norvegicus, UniProt Q9Z0N7)
T1 construct: native IK(S) in H9c2 cells
T1 sequence (Q9Z0N7 1-669): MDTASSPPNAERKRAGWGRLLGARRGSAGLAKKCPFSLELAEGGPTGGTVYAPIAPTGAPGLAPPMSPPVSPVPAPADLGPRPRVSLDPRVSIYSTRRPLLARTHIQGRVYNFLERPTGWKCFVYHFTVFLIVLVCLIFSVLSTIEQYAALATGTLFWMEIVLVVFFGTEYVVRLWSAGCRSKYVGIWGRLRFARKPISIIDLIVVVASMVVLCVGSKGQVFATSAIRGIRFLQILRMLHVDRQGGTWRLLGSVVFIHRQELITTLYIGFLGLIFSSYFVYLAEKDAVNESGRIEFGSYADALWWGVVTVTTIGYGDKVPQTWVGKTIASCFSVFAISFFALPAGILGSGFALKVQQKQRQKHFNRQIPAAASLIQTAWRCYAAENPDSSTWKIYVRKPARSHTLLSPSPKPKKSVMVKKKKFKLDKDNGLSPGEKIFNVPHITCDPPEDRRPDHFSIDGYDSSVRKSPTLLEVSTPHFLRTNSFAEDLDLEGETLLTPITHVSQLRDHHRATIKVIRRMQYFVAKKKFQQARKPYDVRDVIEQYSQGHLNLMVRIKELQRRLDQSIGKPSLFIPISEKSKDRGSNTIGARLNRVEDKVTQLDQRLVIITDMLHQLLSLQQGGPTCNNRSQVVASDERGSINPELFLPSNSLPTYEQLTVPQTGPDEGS
Test: whole-cell patch clamp of native IK(S) in H9c2 cells
Format: cell-based

`CS(=O)(=O)CCNCc1ccc(-c2ccc3ncnc(Nc4ccc(OCc5cccc(F)c5)c(Cl)c4)c3c2)o1` [LAP, lapatinib] showed an IC50 of 1840 nM.
